# Columns and labels:
# [1] = system: Mycobacterium tuberculosis; test: Antimycobacterial activity against Mycobacterium tuberculosis H37Rv after 21 days by broth dilution method; assay type: functional; conditions: 504 h
# Pseudomonas aeruginosa = test: Antibacterial activity against Pseudomonas aeruginosa after 18 hr by broth microdilution technique; assay type: functional
# Saccharomyces cerevisiae = test: Antifungal activity against Saccharomyces cerevisiae after 18 hr by broth microdilution technique; assay type: functional
# Escherichia coli = test: Antibacterial activity against Escherichia coli after 18 hr by broth microdilution technique; assay type: functional
# Staphylococcus aureus = test: Antibacterial activity against Staphylococcus aureus after 18 hr by broth microdilution technique; assay type: functional
# Bacillus subtilis = test: Antibacterial activity against Bacillus subtilis after 18 hr by broth microdilution technique; assay type: functional
# Candida tropicalis = test: Antifungal activity against Candida tropicalis after 18 hr by broth microdilution technique; assay type: functional
# Klebsiella pneumoniae = test: Antibacterial activity against Klebsiella pneumoniae after 18 hr by broth microdilution technique; assay type: functional
# Enterococcus faecalis = test: Antibacterial activity against Enterococcus faecalis after 18 hr by broth microdilution technique; assay type: functional
# Aspergillus niger = test: Antifungal activity against Aspergillus niger after 18 hr by broth microdilution technique; assay type: functional
# A549 = test: Cytotoxicity against Homo sapiens (human) A549 cells after 72 hr by MTT assay; assay type: cell-based; conditions: A549, 72 h
# Vero = test: Cytotoxicity against Chlorocebus aethiops (African green monkey) Vero cells after 72 hr by MTT assay; assay type: cell-based; conditions: Chlorocebus sabaeus
SMILES,MIC [1] [µg/mL],MIC (Pseudomonas aeruginosa) [µg/mL],MIC (Saccharomyces cerevisiae) [µg/mL],MIC (Escherichia coli) [µg/mL],MIC (Staphylococcus aureus) [µg/mL],MIC (Bacillus subtilis) [µg/mL],MIC (Candida tropicalis) [µg/mL],MIC (Klebsiella pneumoniae) [µg/mL],MIC (Enterococcus faecalis) [µg/mL],MIC (Aspergillus niger) [µg/mL],IC50 (A549) [µM],IC50 (Vero) [µM]
Cc1ccc(C)n1-c1ccc(C(=O)NN)cc1,62.5,500,62.5,500,62.5,62.5,62.5,62.5,62.5,62.5,–,–
O=[N+]([O-])c1ccccc1-c1nnc(-c2ccc(-n3cccc3)cc2)o1,2,4,31.2,4,31.2,4,31.2,> 500,16,31.2,267,266
O=[N+]([O-])c1cccc(-c2nnc(-c3ccc(-n4cccc4)cc3)o2)c1,8,8,31.2,8,31.2,8,31.2,> 500,31.2,31.2,256,251
O=[N+]([O-])c1ccc(-c2nnc(-c3ccc(-n4cccc4)cc3)o2)cc1,2,4,31.2,4,31.2,4,31.2,> 500,16,31.2,258,258
Clc1ccc(-c2nnc(-c3ccc(-n4cccc4)cc3)o2)cc1,2,4,8,4,31.2,4,4,> 500,16,16,256,253
Fc1ccc(-c2nnc(-c3ccc(-n4cccc4)cc3)o2)cc1C(F)(F)F,1,2,4,2,31.2,1,2,> 500,8,4,270,268
Cc1ccc(C)n1-c1ccc(C(=O)N/N=C/c2ccc(O)cc2)cc1,31.2,500,16,500,16,31.2,16,62.5,16,16,–,–
Cc1ccc(C)n1-c1ccc(C(=O)N/N=C/c2ccc(N(C)C)cc2)cc1,31.2,500,31.2,500,31.2,31.2,31.2,62.5,31.2,31.2,–,–
CC(C)=NNC(=O)c1ccc(-n2c(C)ccc2C)cc1,31.2,500,62.5,500,31.2,16,31.2,500,31.2,62.5,–,–
C/C(=N/NC(=O)c1ccc(-n2c(C)ccc2C)cc1)c1ccccc1,31.2,500,62.5,500,62.5,16,62.5,500,31.2,62.5,–,–
Cc1ccc(C)n1-c1ccc(C(=O)NN=C(c2ccccc2)c2ccccc2)cc1,31.2,500,62.5,500,62.5,31.2,62.5,500,31.2,62.5,–,–
C/C(=N/NC(=O)c1ccc(-n2c(C)ccc2C)cc1)c1ccc(N)cc1,31.2,500,62.5,500,31.2,62.5,62.5,500,62.5,62.5,–,–
Cc1ccc(C)n1-c1ccc(C(=O)N/N=C/c2ccccc2)cc1,31.2,62.5,62.5,62.5,31.2,31.2,31.2,62.5,62.5,31.2,–,–
Cc1ccc(C)n1-c1ccc(C(=O)N/N=C/c2ccccc2Cl)cc1,16,500,31.2,500,16,8,8,62.5,31.2,16,–,–
Cc1ccc(C)n1-c1ccc(C(=O)N/N=C/c2ccc(Br)cc2)cc1,16,> 500,31.2,500,16,16,8,500,31.2,16,–,–
Cc1ccc(C)n1-c1ccc(C(=O)N/N=C/c2c(Cl)cccc2Cl)cc1,16,500,31.2,500,16,16,4,500,16,4,–,–
Cc1ccc(C)n1-c1ccc(C(=O)N/N=C/c2cccc([N+](=O)[O-])c2)cc1,62.5,500,31.2,500,31.2,31.2,16,500,31.2,16,–,–
Cc1ccc(C)n1-c1ccc(C(=O)N/N=C/c2ccccc2[N+](=O)[O-])cc1,62.5,> 500,31.2,> 500,62.5,31.2,16,> 500,31.2,16,–,–
O=C(O)c1cn(C2CC2)c2cc(N3CCNCC3)c(F)cc2c1=O [CIPROFLOXACIN],–,> 5,–,≤ 1,< 5,≤ 1,–,≤ 1,< 5,–,–,–
OC(Cn1cncn1)(Cn1cncn1)c1ccc(F)cc1F [FLUCONAZOLE],–,–,≤ 1,–,–,–,≤ 1,–,–,≤ 1,–,–
NNC(=O)c1ccncc1 [ISONIAZID],0.25,–,–,–,–,–,–,–,–,–,> 450,> 450
CCn1cc(C(=O)O)c(=O)c2cc(F)c(N3CCNCC3)cc21 [NORFLOXACIN],–,> 5,–,≤ 1,< 5,≤ 1,–,≤ 1,< 5,–,–,–
